The nature of this data set: Dry powder particle sizing using a Malvern Mastersizer. Format: physicochemical. The source says: The following materials were used in the examples: mannitol (Spectrum Chemicals, New Brunswick, N.J., unless otherwise indicated), TWEENTM 80 (Spectrum Chemicals, New Brunswick, N.J.), celecoxib (Onbio, Ontario, Canada), Plasdone-C 15 (International Specialty Products, Wayne, N.Y.), budesonide (Byron Chemical Company, Long Island, N.Y.), dipalmitoyl phosphatidylcholine (DPPC) (Chemi S.p.a., Milan, Italy, unless otherwise indicated), PLGA (Boehringer Ingelheim Fine Chemicals, Ingelheim, Germany), ammonium bicarbonate (Spectrum Chemicals, Gardenia, Calif.), methylene chloride (EM Science, Gibbstown, N.J.), Fluticasone propionate ([…]., Mumbai, India), and lactose (Pharmatose […], DMV International, The Netherlands). The TWEENTM 80 is hereinafter referred to as “Tween80.” The volume average diameter of lactose (Pharmatose […]) was determined to be approximately 68 μm by dry powder particle sizing using a Malvern Mastersizer (Malvern Instruments Ltd., United Kingdom).

In the case of `OC[C@H]1O[C@@H](O[C@H]2[C@H](O)[C@@H](O)C(O)O[C@@H]2CO)[C@H](O)[C@@H](O)[C@H]1O` (stereo partly shown) [lactose (Pharmatose 325M), lactose], the volume average diameter entry is “approximately 68 μm”.
